We go through 3 molecules from ChEMBL document CHEMBL2074503, “Role of organic anion-transporting polypeptides, OATP-A, OATP-C and OATP-8, in the human placenta-maternal liver tandem excretory pathway for foetal bilirubin” (Biochem J, 2003).

The target of data set [1] is T1, Solute carrier organic anion transporter family member 1A2 (Homo sapiens, UniProt P46721).
T1 sequence (P46721 whole entry): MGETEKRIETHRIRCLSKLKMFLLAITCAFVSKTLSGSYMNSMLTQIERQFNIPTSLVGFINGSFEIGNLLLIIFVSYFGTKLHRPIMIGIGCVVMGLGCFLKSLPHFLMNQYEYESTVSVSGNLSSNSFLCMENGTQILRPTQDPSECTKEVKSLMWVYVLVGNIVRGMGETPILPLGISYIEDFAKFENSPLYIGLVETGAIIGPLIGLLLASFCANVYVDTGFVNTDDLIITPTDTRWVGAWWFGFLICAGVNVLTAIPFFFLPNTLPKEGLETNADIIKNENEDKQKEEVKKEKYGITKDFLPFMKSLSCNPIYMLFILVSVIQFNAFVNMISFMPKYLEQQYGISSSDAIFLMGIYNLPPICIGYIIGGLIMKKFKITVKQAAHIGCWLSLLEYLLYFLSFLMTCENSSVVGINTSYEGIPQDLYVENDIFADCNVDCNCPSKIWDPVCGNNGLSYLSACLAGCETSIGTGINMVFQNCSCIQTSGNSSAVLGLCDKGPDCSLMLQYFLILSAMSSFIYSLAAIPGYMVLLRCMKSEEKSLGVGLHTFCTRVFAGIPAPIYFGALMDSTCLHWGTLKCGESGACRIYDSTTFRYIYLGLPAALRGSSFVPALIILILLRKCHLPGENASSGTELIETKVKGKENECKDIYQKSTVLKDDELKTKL
The data set can be described thus: (§1) TP_TRANSPORTER: inhibition of UCB uptake (UCB: 10 uM) by Estradiol-17beta-D-glucuronide at a concentration of 100 u M in Xenopus laevis oocytes. Type of data set: functional, cell-based. The note with it: oocyte, 100 µM.

For data set [2], the target named is T2, Solute carrier organic anion transporter family member 1B1 (Homo sapiens, UniProt Q9Y6L6).
T2 sequence (Q9Y6L6 whole entry): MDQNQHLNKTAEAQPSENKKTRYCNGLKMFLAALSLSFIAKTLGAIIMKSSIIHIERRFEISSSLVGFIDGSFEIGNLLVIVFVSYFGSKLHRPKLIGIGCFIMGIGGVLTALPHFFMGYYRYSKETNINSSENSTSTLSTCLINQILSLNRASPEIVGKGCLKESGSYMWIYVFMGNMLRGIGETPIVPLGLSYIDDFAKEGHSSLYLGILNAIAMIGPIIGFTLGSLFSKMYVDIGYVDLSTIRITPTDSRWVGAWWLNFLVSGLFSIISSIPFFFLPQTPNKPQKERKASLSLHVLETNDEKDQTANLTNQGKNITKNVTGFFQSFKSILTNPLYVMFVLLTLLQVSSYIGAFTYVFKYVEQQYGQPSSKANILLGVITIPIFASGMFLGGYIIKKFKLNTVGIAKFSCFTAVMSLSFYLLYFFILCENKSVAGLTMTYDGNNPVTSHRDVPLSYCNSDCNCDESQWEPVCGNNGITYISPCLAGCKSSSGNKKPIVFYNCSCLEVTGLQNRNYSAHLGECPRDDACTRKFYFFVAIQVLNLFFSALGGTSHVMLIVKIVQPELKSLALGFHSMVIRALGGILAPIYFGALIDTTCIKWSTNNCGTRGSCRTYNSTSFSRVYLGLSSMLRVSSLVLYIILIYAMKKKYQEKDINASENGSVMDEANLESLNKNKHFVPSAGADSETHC
The description is as §1. It counts as functional, cell-based. The conditions noted are these: oocyte, 100 µM.

Data set [3] has as its target T3, Solute carrier organic anion transporter family member 1B3 (Homo sapiens, UniProt Q9NPD5).
T3 sequence (Q9NPD5 whole entry): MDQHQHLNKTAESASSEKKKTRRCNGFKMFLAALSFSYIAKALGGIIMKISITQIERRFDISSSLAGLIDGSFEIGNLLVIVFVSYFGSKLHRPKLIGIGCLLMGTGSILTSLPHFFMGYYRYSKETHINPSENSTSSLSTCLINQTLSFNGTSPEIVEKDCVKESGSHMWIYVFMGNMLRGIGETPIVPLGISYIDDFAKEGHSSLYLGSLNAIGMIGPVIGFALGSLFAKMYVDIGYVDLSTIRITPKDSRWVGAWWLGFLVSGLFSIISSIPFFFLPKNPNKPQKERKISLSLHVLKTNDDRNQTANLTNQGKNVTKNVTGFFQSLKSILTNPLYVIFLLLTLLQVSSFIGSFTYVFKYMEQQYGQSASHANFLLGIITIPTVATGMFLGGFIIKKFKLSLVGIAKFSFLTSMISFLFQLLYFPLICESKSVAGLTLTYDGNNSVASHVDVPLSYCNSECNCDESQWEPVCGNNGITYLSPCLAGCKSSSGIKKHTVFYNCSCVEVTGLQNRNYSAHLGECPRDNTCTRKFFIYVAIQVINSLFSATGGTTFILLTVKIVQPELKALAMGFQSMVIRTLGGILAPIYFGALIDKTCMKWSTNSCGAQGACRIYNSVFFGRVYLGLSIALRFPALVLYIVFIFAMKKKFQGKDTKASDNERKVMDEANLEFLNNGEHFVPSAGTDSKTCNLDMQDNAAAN
The data set is described as §1. Type of data set: functional, cell-based. The conditions noted are these: oocyte, 100 µM.

Data set [4] concerns the target T1, Solute carrier organic anion transporter family member 1A2. The data set is described as follows: (§2) TP_TRANSPORTER: inhibition of E217betaG uptake (E217betaG: 10 uM) by Bilirubin at a concentration of 100 u M in Xenopus laevis oocytes. The note with it: oocyte, 100 µM. It counts as functional, cell-based.
Data set [5] addresses T2, Solute carrier organic anion transporter family member 1B1. Described as §2. Type of data set: functional, cell-based. The note with it: oocyte, 100 µM.
The target of data set [6] is T3, Solute carrier organic anion transporter family member 1B3. The description is as §2. The note with it: oocyte, 100 µM. Type of data set: functional, cell-based.
The target in data set [7] is T4, Solute carrier organic anion transporter family member 1B3 (OATP1B3) (Homo sapiens, UniProt Q9NPD5).
T4 sequence (Q9NPD5 whole entry): T3 sequence (Q9NPD5 whole entry)
The data set can be described thus: (§3) TP_TRANSPORTER: uptake in Xenopus laevis oocytes. The conditions noted are these: Xenopus laevis oocytes expressing OATP1B3 (SLCO1B3). It counts as functional, cell-based, Oocyte.

Substrate in data set [8]: C=CC1=C(C)/C(=C/c2[nH]c(Cc3[nH]c(/C=C4\NC(=O)C(C)=C4C=C)c(C)c3CCC(=O)O)c(CCC(=O)O)c2C)NC1=O
The description is as §3. It counts as functional, cell-based, Oocyte.

Turning to `C[C@]12CC[C@@H]3c4ccc(O)cc4CC[C@H]3[C@@H]1CC[C@@H]2O[C@@H]1O[C@H](C(=O)O)[C@@H](O)[C@H](O)[C@H]1O` [ESTRADIOL 17B GLUCURONIDE], the Activity result in data set [1], in data set [2] and in data set [3] was “inhibitor [+]” in each case.

For orientation: Km means the substrate concentration at which the rate is half of its maximum. Turning to `C=CC1=C(C)/C(=C/c2[nH]c(Cc3[nH]c(/C=C4\NC(=O)C(C)=C4C=C)c(C)c3CCC(=O)O)c(CCC(=O)O)c2C)NC1=O` [BILIRUBIN], the Activity entry in data set [4], in data set [5] and in data set [6] was “inhibitor [+]” throughout. The Km in data set [7] is 0.0391 µM.

B1: Solute carrier organic anion transporter family member 1B1 (Homo sapiens) (protein)
chain: T2 sequence (Q9Y6L6 whole entry)
For B1, the Km in data set [8] was determined as 0.0076 µM.
